Experiment [1] in a line: Stickie coupon peel strength test modified to examine the effect of dilution. The note with it: Concen. 50 ppm; for 1st Dilution: 30 minutes in distilled water after the initial immersion; for No Dilution: Table X. From the text:
In order to establish the efficacy of the materials used in the present invention as deposition control agents, on plastic surfaces and specifically for adhesive contaminants of the sort found in recycled fiber, a laboratory test was devised utilizing adhesive-backed tapes as stickie coupons. The stickie coupon can be fabricated from any type of adhesive tape that will not disintegrate when placed in water. For the study, tapes made from a styrenebutadiene rubber and vinylic esters were used. Both of these potential organic contaminants are known to cause problems "stickies" in secondary fiber utilization. A second coupon was fabricated from polyester film such as the product marketed as MYLAR by the DuPont Chemical Company. This material was chosen because papermachine forming fabrics are frequently made of polyester which is susceptible to considerable problem caused by stickies.
500 mL of solutions in 600 mL beakers containing various deposit control agents are placed in a water bath heated to 50 °C. The tape and the polyester film coupons are placed in the test solution so the adhesive side of the coupon faces away from the polyester film coupon. After 1 hour of immersion, the adhesive side of the stickie coupon is placed in contact with the polyester coupon and pressed to 1000 pound force.
The average peel strength of the bond formed between the tape coupon and the polyester coupon was measured with an Instron tensile tester. The peel strength of the bond formed between the stickie tape coupon and the polyester coupon was interpreted as a measure of the tendency for an organic contaminant to attach to components of a paper-machine and cause runnability or product quality problems. More specifically, this indicates the tendency of a stickies deposit to form on a plastic surface.
Papermaking consists of various processes which can be affected by sudden changes in pH, temperature, dilution (i.e., concentration), shear force, etc. Severe changes in these parameters can cause system shock which adversely impact paper production. Deposit control agents that can strongly adsorb onto the organic contaminant surface and resist the desorbing effects of dilution are highly desirable. Not only will deposition control be improved, but also the required dosage will be reduced, while negative side effects, such as forming and wet-end interferences, will be reduced or eliminated. The procedure outlined in Table VIII was modified to examine the effect of dilution on deposition control. Dilution was accomplished by immersing the adhesive tape and MYLAR in distilled water for 30 minutes after the initial immersion. This can be repeated as many times as desired.

For experiment [2] the following is noted: for % Control: Table IV; for Percent Control of Pitch: Table VI. The protocol: The slurry contained 0.5% bleached hardwood Kraft fiber, approximately 2000 parts per million of the potassium salt of a fatty acid blend, approximately 200 parts per million calcium from calcium chloride and approximately 300 parts per million sodium carbonate. The slurry was maintained at 50 °C and at a pH of 11.
It was stirred gently by an overhead stirrer and subjected to ultrasonic energy for 10 minutes. The deposit weight was determined by subtracting the starting weight of the pan from the weight of the pan plus the deposit after completion of the test. […] Studies of this type were conducted using hydrophobically modified associative polymers of the type described in this invention.

The values that follow come from patent EP0568229A1, “Control of deposition of organic contaminants in pulp and papermaking systems” (BETZ EUROPE, INC., priority 1992, dated 1993).

Where two headings read alike, the source gives them in different places.

As for “octylphenoxy poly(ethyleneoxy)ethanol [Sample 1]”, in experiment [1], the “2nd Dilution” value is on record as 0, the “3rd Dilution” value was 0, the “4th Dilution” value came to 0 and the “1st Dilution” value is on record as 5. Besides, the “No Dilution” value in experiment [1] came out at 100.

Consider “Nonyl Phenol Ethoxylate [Nonyl Phenol Ethoxylate (Surfonic N-95)]”, for which, in experiment [2] (10 ppm), the “% Control” value came to 9% and the “Percent Control of Pitch” value turned out to be 9%. Besides, in experiment [2] (50 ppm), the “% Control” value was 81% and the “Percent Control of Pitch” value was 81%.

nonylphenol ethoxylate [Sample 2]: in experiment [1], the “2nd Dilution” value stood at 2, the “3rd Dilution” value is listed as 0, the “4th Dilution” value is 0 and the “1st Dilution” value is on record as 8. Besides, the “No Dilution” value in experiment [1] is given as 100.

Regarding “dodecylphenoxypoly(ethyleneoxy) ethanol [Sample 3]”, in experiment [1], the “2nd Dilution” value was 16, the “3rd Dilution” value is 5, the “4th Dilution” value is 0 and the “1st Dilution” value amounted to 34. Besides, the “No Dilution” value in experiment [1] came out at 100.
